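Growth conditions: 96-well plates. Treatment: test compound, 48 hours, 5 concentrations. Analysis: linear interpolation between bracketing concentrations; unreached endpoints set to highest concentration. GI50 = concentration required for 50% inhibition of growth.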 Active and inactive are the calls of the source. No stated cut-off is given here; in the data, active = GI50 up to about 1.1 µM and inactive = higher.
Columns and labels:
Assay in all cases: growth of human tumour cells (NCI), 48 h
[1] = test system: 786-0
[2] = test system: A498
[3] = test system: COLO 205
[4] = test system: HCT-15
[5] = test system: HL-60
[6] = test system: HOP-62
[7] = test system: HOP-92
[8] = test system: M14
[9] = test system: MDA-MB-231
[10] = test system: MOLT-4
[11] = test system: Malme-3M
[12] = test system: NCI/ADR-RES
[13] = test system: OVCAR-3
[14] = test system: PC-3
[15] = test system: RPMI-8226
[16] = test system: SK-MEL-5
[17] = test system: SNB-19
[18] = test system: SNB-75
[19] = test system: SW-620
[20] = test system: UO-31

SMILES | GI50 [1] | GI50 [2] | GI50 [3] | GI50 [4] [µM] | GI50 [5] | GI50 [6] | GI50 [7] | GI50 [8] | GI50 [9] | GI50 [10] | GI50 [11] | GI50 [12] | GI50 [13] | GI50 [14] | GI50 [15] | GI50 [16] | GI50 [17] | GI50 [18] | GI50 [19] | GI50 [20]
COc1cc2cc(C(=O)N3CC(CCl)c4ccc(NCCN)cc43)[nH]c2c(OC)c1OC (stereo not given) | 0.228 µM (active) | 0.184 µM (active) | 0.222 µM (active) | 0.377 | 0.0319 µM (active) | 0.166 µM (active) | 0.289 µM (active) | 0.198 µM (active) | 0.223 µM (active) | 0.0575 µM (active) | 0.172 µM (active) | 0.208 µM (active) | 0.236 µM (active) | 0.117 µM (active) | 0.153 µM (active) | 0.116 µM (active) | 0.292 µM (active) | 0.232 µM (active) | 0.151 µM (active) | 0.132 µM (active)
CCOC(=O)c1[nH]cc(C)c1-c1c[nH]c2ccccc12 | 34.9 µM (inactive) | 59.6 µM (inactive) | 15.4 µM (inactive) | 8.81 | 6.44 µM (inactive) | 35.3 µM (inactive) | 22.8 µM (inactive) | 24.9 µM (inactive) | 9.57 µM (inactive) | 4.11 µM (inactive) | 42.7 µM (inactive) | 21.4 µM (inactive) | 26.7 µM (inactive) | 14 µM (inactive) | 7.35 µM (inactive) | 13.8 µM (inactive) | 24.9 µM (inactive) | 28.1 µM (inactive) | 27.9 µM (inactive) | 19.3 µM (inactive)
CCCCCCCCCCCC(=O)N(CCCCCCCCCCC(=O)O)CC(O)C(O)C(OC1OC(CO)C(O)C(O)C1O)C(O)CO (stereo not given) | > 100 µM (inactive) | > 100 µM (inactive) | > 100 µM (inactive) | > 100 | > 100 µM (inactive) | > 100 µM (inactive) | > 100 µM (inactive) | > 100 µM (inactive) | > 100 µM (inactive) | > 100 µM (inactive) | > 100 µM (inactive) | > 100 µM (inactive) | > 100 µM (inactive) | > 100 µM (inactive) | 50.7 µM (inactive) | > 100 µM (inactive) | > 100 µM (inactive) | > 100 µM (inactive) | > 100 µM (inactive) | > 100 µM (inactive)
CC(C)C1OC(=O)/C=C/C=C/C=C/C=C/C=C/CC(O)CC(O)CC(O)CC(O)CC(O)CC(O)CC(O)CC(O)/C=C/C1C (stereo not given) | > 100 µM (inactive) | > 100 µM (inactive) | > 100 µM (inactive) | > 100 | > 100 µM (inactive) | > 100 µM (inactive) | > 100 µM (inactive) | > 100 µM (inactive) | > 100 µM (inactive) | > 100 µM (inactive) | > 100 µM (inactive) | > 100 µM (inactive) | > 100 µM (inactive) | > 100 µM (inactive) | > 100 µM (inactive) | > 100 µM (inactive) | > 100 µM (inactive) | > 100 µM (inactive) | > 100 µM (inactive) | > 100 µM (inactive)
CC(=O)OC(C)c1cc2c(s1)C(=O)c1scc(C(C)OC(C)=O)c1C2=O (stereo not given) | 0.244 µM (active) | 0.619 µM (active) | 0.512 µM (active) | 0.195 | 0.646 µM (active) | 0.191 µM (active) | 1.71 µM (inactive) | 0.117 µM (active) | 0.473 µM (active) | 0.324 µM (active) | 0.139 µM (active) | 0.255 µM (active) | 0.307 µM (active) | 0.292 µM (active) | 0.223 µM (active) | 0.0653 µM (active) | 0.201 µM (active) | 0.185 µM (active) | 0.298 µM (active) | 0.204 µM (active)
CCCCCCCCCCCC1NC(N)=NC(CCCO)=C1C(=O)OC (stereo not given) | 1.83 µM (inactive) | 14.6 µM (inactive) | 1.88 µM (inactive) | 8.22 | 1.42 µM (inactive) | 2.82 µM (inactive) | 3.54 µM (inactive) | 1.93 µM (inactive) | 2.08 µM (inactive) | 1.86 µM (inactive) | 5.12 µM (inactive) | 17.7 µM (inactive) | 2.37 µM (inactive) | 1.1 µM (active) | 2.32 µM (inactive) | 2.24 µM (inactive) | 1.83 µM (inactive) | 2.79 µM (inactive) | 1.61 µM (inactive) | 15.3 µM (inactive)

Reference: ChEMBL document CHEMBL1201862, “PubChem BioAssay data set” (2004)
